In patent publication US20170190671A1, “BIS(ARYL)CATECHOL DERIVATIVES AS HERBICIDES” (E I DU PONT DE NEMOURS AND COMPANY, priority 2014, published 2017):

Key:
Format in all cases: in vivo
[1] = tested on: johnsongrass (Sorghum halepense); experiment: Test C preemergence; settings: Sorghum halepense, pre-emergence, 336 h, scale 0 to 100, read-out: Plant response rating, Johnsongrass
How it was run: (§1)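 Greenhouse test; preemergence on seeded loam-sand soil or spray on 1- to 4-leaf plants; solvent + surfactant vehicle; 13-15 day hold; visual comparison with controls; 0 (no effect)-100 (complete control).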

[2] = tested on: morningglory (Ipomoea coccinea); experiment: Test C preemergence; settings: Ipomoea, pre-emergence, 336 h, scale 0 to 100, read-out: Plant response rating, Morningglory
How it was run: as §1

[3] = tested on: pigweed (Amaranthus retroflexus); experiment: Test C preemergence; settings: Amaranthus retroflexus, pre-emergence, 336 h, scale 0 to 100, read-out: Plant response rating, Pigweed
How it was run: as §1

[4] = tested on: barnyardgrass (Echinochloa crus-galli); experiment: Test C postemergence; settings: Echinochloa crus-galli, post-emergence, Postemergence, scale 0 to 100, read-out: Plant response rating, Barnyardgrass
[5] = tested on: blackgrass (Alopecurus myosuroides); experiment: Test C postemergence; settings: Alopecurus myosuroides, post-emergence, 336 h, Postemergence, scale 0 to 100, read-out: Plant response rating, Blackgrass
[6] = tested on: chickweed (common chickweed, Stellaria media); experiment: Test C postemergence; settings: Stellaria media, post-emergence, Postemergence, scale 0 to 100, read-out: Plant response rating, Chickweed
corn (Zea mays) = experiment: Test C postemergence; settings: Zea mays, post-emergence, 336 h, Postemergence, scale 0 to 100
[7] = tested on: galium (catchweed bedstraw, Galium aparine); experiment: Test C postemergence; settings: Galium, post-emergence, 336 h, Postemergence, scale 0 to 100, read-out: Plant response rating, Galium
[8] = tested on: giant foxtail (Setaria faberii); experiment: Test C postemergence; settings: Setaria faberi, post-emergence, 336 h, Postemergence, scale 0 to 100, read-out: Plant response rating, Foxtail, Giant
[9] = tested on: johnsongrass (Sorghum halepense); experiment: Test C postemergence; settings: Sorghum halepense, post-emergence, 336 h, Postemergence, scale 0 to 100, read-out: Plant response rating, Johnsongrass
kochia (Kochia scoparia) = experiment: Test C postemergence; settings: Bassia scoparia, post-emergence, Postemergence, scale 0 to 100, read-out: Plant response rating, Kochia
[10] = tested on: lambsquarters (Chenopodium album); experiment: Test C postemergence; settings: Chenopodium album, post-emergence, 336 h, Postemergence, scale 0 to 100, read-out: Plant response rating, Lambsquarters
[11] = tested on: large (Lg) crabgrass (Digitaria sanguinalis); experiment: Test C postemergence; settings: Digitaria sanguinalis, post-emergence, 336 h, Postemergence, scale 0 to 100, read-out: Plant response rating, Crabgrass, Large
[12] = tested on: morningglory (Ipomoea coccinea); experiment: Test C postemergence; settings: Ipomoea, post-emergence, 336 h, Postemergence, scale 0 to 100, read-out: Plant response rating, Morningglory
[13] = tested on: oilseed rape (Brassica napus); experiment: Test C postemergence; settings: Brassica napus, post-emergence, Postemergence, scale 0 to 100, read-out: Plant response rating, Oilseed Rape
[14] = tested on: pigweed (Amaranthus retroflexus); experiment: Test C postemergence; settings: Amaranthus retroflexus, post-emergence, 336 h, Postemergence, scale 0 to 100, read-out: Plant response rating, Pigweed
[15] = tested on: ragweed (common ragweed, Ambrosia elatior); experiment: Test C postemergence; settings: Ambrosia artemisiifolia, post-emergence, 336 h, Postemergence, scale 0 to 100, read-out: Plant response rating, Ragweed
soybean (Glycine max) = experiment: Test C postemergence; settings: Glycine max, post-emergence, Postemergence, scale 0 to 100, read-out: Plant response rating, Soybean
[16] = tested on: velvetleaf (Abutilon theophrasti); experiment: Test C postemergence; settings: Abutilon theophrasti, post-emergence, Postemergence, scale 0 to 100, read-out: Plant response rating, Velvetleaf
[17] = tested on: waterhemp (common waterhemp, Amaranthus rudis); experiment: Test C postemergence; settings: Amaranthus tuberculatus, post-emergence, Postemergence, scale 0 to 100, read-out: Plant response rating, Waterhemp
[18] = tested on: winter wheat (Triticum aestivum); experiment: Test C postemergence; settings: Triticum aestivum, post-emergence, 336 h, Postemergence, scale 0 to 100, read-out: Plant response rating, Wheat
[19] = tested on: yellow nutsedge (Cyperus esculentus); experiment: Test C postemergence; settings: Cyperus, post-emergence, 336 h, Postemergence, scale 0 to 100, read-out: Plant response rating, Nutsedge, Yellow

N#Cc1cccc(Oc2ncc(C(F)(F)F)cn2)c1Oc1ncc(Cl)cn1 [Compound 39, 2-[(5-chloro-2-pyrimidinyl)oxy]-3-[[5-(trifluoromethyl)-2-pyrimidinyl]oxy]-benzonitrile]
pest or weed control at 31 g/ha ([1]; 31 g ai/ha, preemergence): 65% | pest or weed control at 62 g/ha ([1]; 62 g ai/ha, preemergence): 85% | pest or weed control at 125 g/ha ([1]; 125 g ai/ha, preemergence): 100% | pest or weed control at 16 g/ha ([1]; Preemergence, 16 g ai/ha): 25% | pest or weed control at 31 g/ha ([2]; 31 g ai/ha, preemergence): 80% | pest or weed control at 62 g/ha ([2]; 62 g ai/ha, preemergence): 98% | pest or weed control at 125 g/ha ([2]; 125 g ai/ha, preemergence): 100% | pest or weed control at 16 g/ha ([2]; Preemergence, 16 g ai/ha): 45% | pest or weed control at 31 g/ha ([3]; 31 g ai/ha, preemergence): 98% | pest or weed control at 62 g/ha ([3]; 62 g ai/ha, preemergence): 100% | pest or weed control at 125 g/ha ([3]; 125 g ai/ha, preemergence): 100% | pest or weed control at 16 g/ha ([3]; Preemergence, 16 g ai/ha): 100% | pest or weed control at 16 g/ha ([4]; 16 g ai/ha): 5% | pest or weed control at 31 g/ha ([4]; 31 g ai/ha): 15% | pest or weed control at 62 g/ha ([4]; 62 g ai/ha): 15% | pest or weed control at 125 g/ha ([4]; 125 g ai/ha): 25% | pest or weed control at 16 g/ha ([5]; 16 g ai/ha): 5% | pest or weed control at 31 g/ha ([5]; 31 g ai/ha): 10% | pest or weed control at 62 g/ha ([5]; 62 g ai/ha): 15% | pest or weed control at 125 g/ha ([5]; 125 g ai/ha): 30% | pest or weed control at 16 g/ha ([6]; 16 g ai/ha): 60% | pest or weed control at 31 g/ha ([6]; 31 g ai/ha): 60% | pest or weed control at 62 g/ha ([6]; 62 g ai/ha): 90% | pest or weed control at 125 g/ha ([6]; 125 g ai/ha): 90% | Corn plant response rating (crop injury, 0 = no effect, 100 = complete kill) at 16 g/ha (corn (Zea mays); 16 g ai/ha): 5% | Corn plant response rating (crop injury, 0 = no effect, 100 = complete kill) at 31 g/ha (corn (Zea mays); 31 g ai/ha): 10% | Corn plant response rating (crop injury, 0 = no effect, 100 = complete kill) at 62 g/ha (corn (Zea mays); 62 g ai/ha): 10% | Corn plant response rating (crop injury, 0 = no effect, 100 = complete kill) at 125 g/ha (corn (Zea mays); 125 g ai/ha): 20% | pest or weed control at 16 g/ha ([7]; 16 g ai/ha): 60% | pest or weed control at 31 g/ha ([7]; 31 g ai/ha): 80% | pest or weed control at 62 g/ha ([7]; 62 g ai/ha): 80% | pest or weed control at 125 g/ha ([7]; 125 g ai/ha): 90% | pest or weed control at 16 g/ha ([8]; 16 g ai/ha): 10% | pest or weed control at 31 g/ha ([8]; 31 g ai/ha): 10% | pest or weed control at 62 g/ha ([8]; 62 g ai/ha): 10% | pest or weed control at 125 g/ha ([8]; 125 g ai/ha): 20% | pest or weed control at 16 g/ha ([9]; 16 g ai/ha): 5% | pest or weed control at 31 g/ha ([9]; 31 g ai/ha): 15% | pest or weed control at 62 g/ha ([9]; 62 g ai/ha): 10% | pest or weed control at 125 g/ha ([9]; 125 g ai/ha): 10% | pest or weed control at 16 g/ha (kochia (Kochia scoparia); 16 g ai/ha): 90% | pest or weed control at 31 g/ha (kochia (Kochia scoparia); 31 g ai/ha): 95% | pest or weed control at 62 g/ha (kochia (Kochia scoparia); 62 g ai/ha): 100% | pest or weed control at 125 g/ha (kochia (Kochia scoparia); 125 g ai/ha): 100% | pest or weed control at 16 g/ha ([10]; 16 g ai/ha): 75% | pest or weed control at 31 g/ha ([10]; 31 g ai/ha): 70% | pest or weed control at 62 g/ha ([10]; 62 g ai/ha): 80% | pest or weed control at 125 g/ha ([10]; 125 g ai/ha): 85% | pest or weed control at 16 g/ha ([11]; 16 g ai/ha): 5% | pest or weed control at 31 g/ha ([11]; 31 g ai/ha): 5% | pest or weed control at 62 g/ha ([11]; 62 g ai/ha): 10% | pest or weed control at 125 g/ha ([11]; 125 g ai/ha): 10% | pest or weed control at 31 g/ha ([12]; 31 g ai/ha): 75% | pest or weed control at 62 g/ha ([12]; 62 g ai/ha): 90% | pest or weed control at 125 g/ha ([12]; 125 g ai/ha): 85% | plant injury at 31 g/ha ([13]; 31 g ai/ha): 5% | plant injury at 62 g/ha ([13]; 62 g ai/ha): 40% | plant injury at 125 g/ha ([13]; 125 g ai/ha): 40% | pest or weed control at 31 g/ha ([14]; 31 g ai/ha): 70% | pest or weed control at 62 g/ha ([14]; 62 g ai/ha): 90% | pest or weed control at 125 g/ha ([14]; 125 g ai/ha): 95% | pest or weed control at 31 g/ha ([15]; 31 g ai/ha): 65% | pest or weed control at 62 g/ha ([15]; 62 g ai/ha): 60% | pest or weed control at 125 g/ha ([15]; 125 g ai/ha): 85% | plant injury at 31 g/ha (soybean (Glycine max); 31 g ai/ha): 60% | plant injury at 62 g/ha (soybean (Glycine max); 62 g ai/ha): 95% | plant injury at 125 g/ha (soybean (Glycine max); 125 g ai/ha): 70% | pest or weed control at 31 g/ha ([16]; 31 g ai/ha): 55% | pest or weed control at 62 g/ha ([16]; 62 g ai/ha): 60% | pest or weed control at 125 g/ha ([16]; 125 g ai/ha): 60% | pest or weed control at 31 g/ha ([17]; 31 g ai/ha): 75% | pest or weed control at 62 g/ha ([17]; 62 g ai/ha): 85% | pest or weed control at 125 g/ha ([17]; 125 g ai/ha): 95% | plant injury at 31 g/ha ([18]; 31 g ai/ha): 0% | plant injury at 62 g/ha ([18]; 62 g ai/ha): 5% | plant injury at 125 g/ha ([18]; 125 g ai/ha): 0% | pest or weed control at 31 g/ha ([19]; 31 g ai/ha): 5% | pest or weed control at 62 g/ha ([19]; 62 g ai/ha): 5% | pest or weed control at 125 g/ha ([19]; 125 g ai/ha): 5%
